Data on three compounds can be found in the NIST ThermoML archive (doi:10.1016/j.fluid.2010.02.029).

The conditions of series [1]: 101.33 kPa, Crystal, radial heat flow.
Series [2] in a line: xn = mol fraction of the nth substance listed. As to conditions: 101 kPa, radial heat flow.

± gives the expanded uncertainty stated by the source.

In the case of `[Bi]` [bismuth], the thermal conductivity in series [1] (382.65 K) amounted to 8.35 ± 1.2 W/m/K; in series [1] (418.7 K) it was 8.12 ± 1.1 W/m/K.
Regarding `[Cd]` [cadmium] + [Bi], the thermal conductivity in series [2] (418.7 K, Crystal, x2 = 0.5504) was 12.46 ± 1.7 W/m/K; in series [2] (418.7 K, Liquid, x2 = 0.5504) it was 10.06 ± 1.4 W/m/K.
For `[In]` [indium] + [Bi], the thermal conductivity in series [2] (382.65 K, Crystal, x2 = 0.527) was 13.25 ± 1.9 W/m/K; in series [2] (382.65 K, Liquid, x2 = 0.527), 10.6 ± 1.5 W/m/K.
